Measurements as given in paper PMC5064002, “Sintokamide A Is a Novel Antagonist of Androgen Receptor That Uniquely Binds Activation Function-1 in Its Amino-terminal Domain” (The Journal of Biological Chemistry, 2016).

Columns and labels:
AR-YFP = target: T1, AR-YFP (Homo sapiens, UniProt P10275); assay: AR nuclear translocation (AR-YFP) in LNCaP cells; assay type: cell-based; details: 10 μM compound
T1 construct: expressed in transfected cells; host or cells: LNCaP
T1 sequence (P10275 1-920): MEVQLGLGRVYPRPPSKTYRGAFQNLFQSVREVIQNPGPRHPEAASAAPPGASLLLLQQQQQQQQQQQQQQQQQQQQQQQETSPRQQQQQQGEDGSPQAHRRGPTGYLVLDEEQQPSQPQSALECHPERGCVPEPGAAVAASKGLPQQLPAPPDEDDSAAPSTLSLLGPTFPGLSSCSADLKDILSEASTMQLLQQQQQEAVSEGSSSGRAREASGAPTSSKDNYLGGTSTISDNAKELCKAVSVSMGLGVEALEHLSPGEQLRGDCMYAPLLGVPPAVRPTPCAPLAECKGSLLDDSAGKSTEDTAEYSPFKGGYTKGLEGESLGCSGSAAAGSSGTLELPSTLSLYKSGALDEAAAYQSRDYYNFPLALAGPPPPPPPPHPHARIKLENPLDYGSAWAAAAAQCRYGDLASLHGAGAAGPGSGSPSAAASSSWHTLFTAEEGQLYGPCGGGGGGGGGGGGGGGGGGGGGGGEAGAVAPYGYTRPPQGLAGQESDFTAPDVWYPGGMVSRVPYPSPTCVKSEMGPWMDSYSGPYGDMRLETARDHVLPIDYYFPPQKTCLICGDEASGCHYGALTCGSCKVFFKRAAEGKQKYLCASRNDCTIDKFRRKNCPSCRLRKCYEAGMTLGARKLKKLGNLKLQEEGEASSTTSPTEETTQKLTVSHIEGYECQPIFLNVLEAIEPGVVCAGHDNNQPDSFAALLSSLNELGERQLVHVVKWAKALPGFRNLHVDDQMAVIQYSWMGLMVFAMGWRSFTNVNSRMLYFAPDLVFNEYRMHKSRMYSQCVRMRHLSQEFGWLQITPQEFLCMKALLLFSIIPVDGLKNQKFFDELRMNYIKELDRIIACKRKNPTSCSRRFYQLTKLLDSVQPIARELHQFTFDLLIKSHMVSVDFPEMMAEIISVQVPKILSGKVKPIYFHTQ
Experimental: Cells were exposed to 1 nM R1881 for an additional 2 h, fixed with paraformaldehyde, and mounted in Vectashield antifade mounting medium with DAPI (H-1200, Vector Laboratories). Cellular localization of AR was examined by fluorescence microscopy using an Axiovert 200 microscope equipped with a YFP filter (excitation, 500/20 nm; emission, 535/30 nm; Zeiss, Toronto, Ontario, Canada). Images were taken using a Axiocam MR camera and the AxioVision 4.4 software (Zeiss, Toronto, ON, Canada).

LNCaP cells = test system: LNCaP cells; parameters: method as in PMID 18834139; details: cited from earlier work

CCC(=O)NC(CC(C)C(Cl)(Cl)Cl)C(=O)N1C(=O)C=C(OC)C1CC(C)C(Cl)Cl (stereo not drawn) [SINT1, Sintokamide A]
nuclear translocation of AR in the absence of androgen (AR-YFP): AR remained cytoplasmic | nuclear translocation of AR in the presence of androgen (AR-YFP; 1 nM R1881 2 h): Androgen induced AR translocation to the nucleus regardless of treatments | androgen-dependent growth of LNCaP cells (LNCaP cells): block
